# Reference: paper PMC5940383, “SMAR1 inhibits Wnt/β-catenin signaling and prevents colorectal cancer progression” (Oncotarget, 2018)
# Where a SMILES comes first, the peptide text is derived from it. Where no end group is shown, it is not given here. The star is where a group is joined. Cbz = O=C(OCc1ccccc1)*
# B1: rh Wnt3a: recombinant human (rh) Wnt3a ligand (protein, UniProt P56704 19-352, looked up)
# Protein Wnt-3a: SYPIWWSLAVGPQYSSLGSQPILCASIPGLVPKQLRFCRNYVEIMPSVAEGIKIGIQECQHQFRGRRWNCTTVHDSLAIFGPVLDKATRESAFVHAIASAGVAFAVTRSCAEGTAAICGCSSRHQGSPGKGWKWGGCSEDIEFGGMVSREFADARENRPDARSAMNRHNNEAGRQAIASHMHLKCKCHGLSGSCEVKTCWWSQPDFRAIGDFLKDKYDSASEMVVEKHRESRGWVETLRPRYTYFKVPTERDLVYYEASPNFCEPNPETGSFGTRDRTCNVSSHGIDGCDLLCCGRGHNARAERRREKCRCVFHWCCYVSCQECTRVYDVHTCK
# What was measured:
# [1] = system: SMAR1 expression in HCT116 cells and an array of CRC cell lines; assay: Western blot / confocal: SMAR1 protein expression after peptide treatment; type: cell-based; settings: Wnt3a CM or rh Wnt3a ligand (200 ng/mL), LiCl 30 mM for 6 hrs, MG132 10 μM with or without Wnt3a CM
# Experimental: (§1) HCT116, SW480, SW620, HCT15 and HT29 cells (obtained from NCCS, Pune) were cultured in DMEM medium with 10% Fetal Bovine Serum (Gibco) and 100 Units of Penicillin Streptomycin antibiotics (Gibco). HCT116 stable cells were generated using GFP-SMAR1, GFP-control and GFP-sh-SMAR1 plasmids. si-HDAC5 plasmid was purchased from Santa Cruz Biotechnology. Conditioned medium were prepared using L cells and L-Wnt3a cells (kind gift from Jomon Joseph, NCCS Pune). After culturing for 7 days supernatant was collected and filtered through 0.22 micron syringe filter. Cells were treated with peptides (provided by Amrita Therapeutics) for 48 hours. Lipofectamine 2000 (Invitrogen) was used for transfection purposes.
# Proteins were extracted using lysis buffer (50 mM Tris-Cl pH 7.5, 5 mM EDTA, 0.5% NP40, 50 mM NaF, 1 mM DTT, 0.2 mM sodium orthovanadate, 0.5 mM PMSF, 150 mM NaCl and 1X Protease Inhibitor cocktail). 40 μg proteins were transferred to PVDF membranes by Western blotting technique and blots were blocked with 5% BSA and incubated in primary antibodies. Blots were then incubated with HRP conjugated secondary antibodies and developed in X-ray films. For IP, proteins extracted were pre-cleared with Protein A/G beads (Invitrogen) and immunoprecipitated overnight with desired antibodies. Protein A/G beads were used to pull-down the protein-antibody complex and western blot was performed to check the interaction.
# For confocal studies cells were fixed with 4% para-formaldehyde solution and permeabilized using 0.1% TritonX-100 solution. Cells were incubated with 1:250 dilution SMAR1 (Bethyl) antibody for 2 hours and later with 1:250 dilution Cy3 (Life Technologies) antibody for 1 hour. Coverslips containing cells were mounted using DAPI containing mounting medium (Fluoroshield with DAPI, Sigma). Human colon paraffinized tissue sections were de-paraffinized by heating in a microwave oven and later washed with xylene and alcohol. Antigen retrieval was performed and washed with PBS for further staining with 1:250 SMAR1 (Bethyl) and 1:250 β-catenin (BD Bioscience) antibodies. […]
# [2] = system: HCT116 cells; settings: 48 h
# [3] = NOD-SCID mice, 25 mg/kg body weight intra-peritoneally on alternate days for 21 days, throughout the course of treatment
# [4] = system: β-catenin promoter in HCT116 cells; assay: ChIP: occupancy of SMAR1, HDAC5 and H3K9 Ac at β-catenin promoter; type: cell-based; settings: Wnt3a CM stimulation, mean ± SD, n = 3
# Experimental: HCT116 cells were transfected with GFP-control, GFP-SMAR1, GFP-sh-SMAR1 or HDAC5 siRNA plasmids. ChIP was performed using Millipore reagents supplied according to the manufacturer's protocol. The protein-DNA complex were immunoprecipitated overnight at 4° C using SMAR1 (Bethyl), HDAC5 (Cell Signaling), H3K9Ac (Cell Signaling) or IgG (Santa Cruz Biotechnology) antibodies (1 μg each). PCR was performed with the primers flanking the binding sites of SMAR1 in β-catenin promoter. […]. The PCR conditions were 95° C for 1 minute, 55° C for 1 minute and 72° C for 1 minute for 35 cycles. The PCR amplicons obtained were run in 1% Agarose (Sigma) gel and documented.
# [5] = system: β-catenin expression in HCT116 cells; assay: Western blot: β-catenin expression; type: cell-based; settings: Wnt3a CM or rh Wnt3a ligand (200 ng/mL)
# Experimental: as §1
# Proteins were extracted using lysis buffer (50 mM Tris-Cl pH 7.5, 5 mM EDTA, 0.5% NP40, 50 mM NaF, 1 mM DTT, 0.2 mM sodium orthovanadate, 0.5 mM PMSF, 150 mM NaCl and 1X Protease Inhibitor cocktail). 40 μg proteins were transferred to PVDF membranes by Western blotting technique and blots were blocked with 5% BSA and incubated in primary antibodies. Blots were then incubated with HRP conjugated secondary antibodies and developed in X-ray films. For IP, proteins extracted were pre-cleared with Protein A/G beads (Invitrogen) and immunoprecipitated overnight with desired antibodies. […]
# [6] = system: β-catenin promoter (pEGFP1-β-catenin) in HCT116 cells; assay: Flow cytometry of pEGFP1-β-catenin GFP expression; type: cell-based; settings: pEGFP1-β-catenin transfected HCT116 cells, 200 ng/mL rh Wnt3a ligand; n = 3, SD
# Source text: Genomic DNA was isolated from HCT116 cells and amplified with primers flanking binding sites of SMAR1 in β-catenin promoter. […]. The amplicon was ligated into pEGFP1 vector using T4 DNA ligase (NEB) after restriction digestion with XhoI and KpnI enzymes (NEB). Plasmids were transformed into DH5α E. coli competent cells and positive clones were identified after restriction digestion with XhoI and KpnI. The cloned β-catenin promoter was christened as pEGFP1-β-catenin.
# HCT116 cells were co-transfected with FLAG-SMAR1 and pEGFP1-β-catenin plasmids or treated with rh Wnt3a ligand after transfection with pEGFP1-β-catenin. For flow cytometry analysis HCT116 cells were trypsinized using Trypsin-EDTA (Gibco) and washed thrice with PBS buffer. Cells were then passed through cell strainer (BD Falcon) and collected in flow cytometry tubes. GFP expressions were quantitated by subjecting 1 × 10^4 cells to BD FACSCalibur flow cytometry. FL1 channel was used to sort and quantify the GFP cells. Using CellQuest Pro software the histogram plots were derived and the GFP percentages were calculated. The graphs corresponding to the GFP percentage were generated using SigmaPlot software.
Molecule,SMAR1 protein level after treatment [1],IC50 value (MTT assay) [2] [µg/mL],adverse effects [3],other results
[Cl-].[Li+] [LiCl],failed to downregulate SMAR1,,,
CC(C)C[C@@H](C=O)NC(=O)[C@H](CC(C)C)NC(=O)[C@H](CC(C)C)NC(=O)OCc1ccccc1 [MG132] (Cbz-Leu-Leu-Leu-aldehyde),SMAR1 protein stability was observed,,,
ATATVNAIRGSVTPAVSQFN [AT-01C],,10,no observable adverse effects,
NAIRGSVTPAVSQFN [AT-01D],,9.90,no observable adverse effects,
Wnt3a,significant downregulation of SMAR1,,,increased H3K9 Ac occupancy in β-catenin promoter [4]: 4.72 fold; reduced occupancy of HDAC5 in β-catenin promoter [4]: 4.77 fold; reduced occupancy of SMAR1 in β-catenin promoter [4]: 4.54 fold; β-catenin levels after Wnt3a stimulation [5]: concomitant rise in the β-catenin levels
B1,,,,increase in GFP expression (β-catenin promoter activity) [6]: about 45%
